Earlier results in patent US20110081780A1, “AQUEOUS DISPERSION FOR CHEMICAL MECHANICAL POLISHING AND CHEMICAL MECHANICAL POLISHING METHOD” (JSR CORPORATION, priority 2008, published 2011).

Conditions: commercially available products

| Compound | HLB value |
| --- | --- |
| 2,4,7,9-tetramethyl-5-decyne-4,7-diol-dipolyoxyethylene ethers [Surfynol 465] | 13 |
| 2,4,7,9-tetramethyl-5-decyne-4,7-diol-dipolyoxyethylene ethers [Surfynol 485] | 17 |

Conditions: 25° C.; second carboxyl group if two carboxyl groups, third if three or more

| Compound | pKa |
| --- | --- |
| CCC(CC)C(CC)(CCC(=O)O)C(=O)O (stereo not drawn) [2-Ethyl-2-(1-ethylpropyl)glutaric acid] | 7.31 |
| CCC(C(=O)O)C(CC)C(=O)O (stereo not drawn) [2,3-Diethylsuccinic acid] | 6.46 |
| O=C(O)[C@@H]1CCCCC[C@H]1C(=O)O (relative stereo) [1,2-Cycloheptanedicarboxylic acid (trans)] | 6.18 |
| CCC(C(=O)O)C(=O)O [2-Ethylmalonic acid] | 5.81 |
| O=C(O)[C@H]1CCCCC[C@H]1C(=O)O [1,2-Cycloheptanedicarboxylic acid (cis)] | 7.60 |
| CCC(C)(C(=O)O)C(=O)O [2-Ethyl-2-methylmalonic acid] | 6.55 |
| CC1CCCCC1(CC(=O)O)CC(=O)O (stereo not drawn) [2-Methylcyclohexyl-1,1-diacetic acid] | 6.89 |
| CC(C(=O)O)C(=O)O [2-Methylmalonic acid] | 5.76 |
| CC(C)(C)C(C(=O)O)C(C(=O)O)C(C)(C)C (stereo not drawn) [2,3-Di-t-butylsuccinic acid] | 10.26 |
| CC(C)C(C(=O)O)(C(=O)O)C(C)C [2,2-Diisopropylmalonic acid] | 8.85 |
| O=C(O)[C@H]1CCCCCC[C@H]1C(=O)O [1,2-Cyclooctanedicarboxylic acid (cis)] | 7.34 |
| CCC(C(=O)O)C(C)C(=O)O (stereo not drawn) [2-Ethyl-3-methylsuccinic acid] | 6.10 |
| CC(C(=O)O)C(C)C(=O)O (stereo not drawn) [2,3-Dimethylsuccinic acid] | 6.00 |
| CCC(CC)(C(=O)O)C(=O)O [2,2-Diethylmalonic acid] | 7.42 |
| CC(C)C(C(=O)O)C(=O)O [2-Isopropylmalonic acid] | 5.88 |
| O=C(O)[C@@H]1CCCCCC[C@H]1C(=O)O (relative stereo) [1,2-Cyclooctanedicarboxylic acid (trans)] | 6.24 |

Results, then the compound that gave them:

| pKa | Compound |
| --- | --- |
| 6.77 | O=C(O)CC1(CC(=O)O)CCCC1 [Cyclopentyl-1,1-diacetic acid] |
| 7.49 | CC(C)(C)C(C)(CC(=O)O)CC(=O)O [3-t-Butyl-3-methylglutaric acid] |
| 6.17 | CC(CC(=O)O)(CC(=O)O)c1ccccc1 [3-Methyl-3-phenylglutaric acid] |
| 7.08 | O=C(O)CC1(CC(=O)O)CCCCC1 [Cyclohexyl-1,1-diacetic acid] |
| 6.70 | CCC(C)(CC(=O)O)CC(=O)O [3-Methyl-3-ethylglutaric acid] |
| 6.95 | CCC(CC(=O)O)(CC(=O)O)c1ccccc1 [3-Ethyl-3-phenylglutaric acid] |
| 6.92 | CC(C)C(C)(CC(=O)O)CC(=O)O [3-Isopropyl-3-methylglutaric acid] |
| 7.41 | CC(C)(C(=O)O)C(C)(C)C(=O)O [Tetramethylsuccinic acid] |
| 7.42 | CCC(CC)(CC(=O)O)CC(=O)O [3,3-Diethylglutaric acid] |
| 7.48 | CCCC(CCC)(CC(=O)O)CC(=O)O [3,3-Dipropylglutaric acid] |
| 7.68 | CC(C)C(CC(=O)O)(CC(=O)O)C(C)C [3,3-Diisopropylglutaric acid] |
| 9.46 | O=C(O)c1ccc(O)cc1 [p-Hydroxybenzoic acid] |
| 6.45 | CC(C)(CC(=O)O)CC(=O)O [3,3-Dimethylglutaric acid] |
| 9.96 | O=C(O)c1cccc(O)c1 [m-Hydroxvbenzoic acid] |
| 5.55 | O=C(O)CC(C(=O)O)c1ccccc1 (stereo not drawn) [Phenylsuccinic acid] |
